Test results from patent US8846933B2, “N-link hydroxamic acid derivatives useful as antibacterial agents” (Pfizer Inc., priority 2009, dated 2014).

Columns and labels:
[1] = system: Pseudomonas aeruginosa UI-18: Wild-type (PA-7); assay: MIC determination (CLSI), strain PA-7; format: cell-based; conditions: strain PA-7, unit assumed
Method: (§1) The in vitro antibacterial activity of compounds described in the Examples was evaluated by minimum inhibitory concentration (MIC) testing according to Clinical and Laboratory Standards Institute (CLSI, formerly NCCLS) guidelines. See: Clinical and Laboratory Standards Institute. Methods for Dilution Antimicrobial Susceptibility Tests for Bacteria that Grow Aerobically; Approved Standard-Seventh Edition. CLSI document M7-A7 [ISBN 1-56238-587-9]. Clinical and Laboratory Standards Institute, 940 West Valley Road, Suite 1400, Wayne, Pa. 19087-1898 USA, 2006; also Clinical and Laboratory Standards Institute. Performance Standards for Antimicrobial Susceptibility Testing; Eighteenth Informational Supplement. CLSI document M100-S18 [ISBN1-56238-653-0].Clinical and Laboratory Standards Institute.
(§2) The following bacterial strains were used in these MIC determinations:
1) Pseudomonas aeruginosa UI-18: Wild-type, labeled as PA-7 in Tables 4, and 5;

[2] = system: Escherichia coli EC-1: VOGEL, mouse virulent; assay: MIC determination (CLSI), strain EC-1; format: cell-based; conditions: strain EC-1, unit assumed
Method: as §1, §2
3) Escherichia coli EC-1: VOGEL, mouse virulent labeled as EC-1 in Tables 4 and 5;

[3] = generated in the same manner as in Table 4

Row | Structure (SMILES) | PA-7 (MIC) [1, 3] | EC-1 (MIC) [2, 3] | PA-7 (MIC) [1] | EC-1 (MIC) [2]
1 | COc1ccccc1-c1ccn(CCC(C)(C(=O)NO)S(C)(=O)=O)c(=O)c1 (stereo not shown) [Example 120, N-hydroxy-4-[4-(2-methoxyphenyl)-2-oxopyridin-1(2H)-yl]-2-methyl-2-(methylsulfonyl)butanamide] | 16 µg/mL | 64 µg/mL |  | 
2 | CC(CCn1ccc(-c2ccc3cc(OCCO)ccc3c2)cc1=O)(C(=O)NO)S(C)(=O)=O (stereo not shown) [Example 273, N-hydroxy-4-{4-[6-(2-hydroxyethoxy)-2-naphthyl]-2-oxopyridin-1(2H)-yl}-2-methyl-2-(methylsulfonyl)butanamide] |  |  | 4 µg/mL | 0.5 µg/mL
3 | CC(CCn1ccc(-c2ccc(OCCN3CCCC3)cc2)cc1=O)(C(=O)NO)S(C)(=O)=O (stereo not shown) [Example 74] | > 64 µg/mL | > 64 µg/mL |  | 
4 | CCCCc1ccc(-c2ccn(CC[C@](C)(C(=O)NO)S(C)(=O)=O)c(=O)c2)cc1 [Example 464, (2R)-4-[4-(4-butylphenyl)-2-oxopyridin-1(2H)-yl]-N-hydroxy-2-methyl-2-(methylsulfonyl)butanamide] |  |  | 1 µg/mL | 0.03 µg/mL
5 | CCCc1ccc(-c2ccn(CC[C@](C)(C(=O)NO)S(C)(=O)=O)c(=O)c2)cc1 [Example 465, (2R)-N-hydroxy-2-methyl-2-(methylsulfonyl)-4-[2-oxo-4-(4-propylphenyl)pyridin-1(2H)-yl]butanamide] |  |  | 0.5 µg/mL | 0.125 µg/mL
6 | Cc1cnc(-c2ccc(-c3ccn(CC[C@](C)(C(=O)NO)S(C)(=O)=O)c(=O)c3)cc2)cn1 [Example 457, (2R)-N-hydroxy-2-methyl-4-{4-[4-(5-methylpyrazin-2-yl)phenyl]-2-oxopyridin-1(2H)-yl}-2-(methylsulfonyl)butanamide] |  |  | 2 µg/mL | 0.5 µg/mL
7 | COc1ccc(Oc2ccc(-c3ccn(CCC(C)(C(=O)NO)S(C)(=O)=O)c(=O)c3)cc2)cc1 (stereo not shown) [Example 139, N-hydroxy-4-{4-[4-(4-methoxyphenoxy)phenyl]-2-oxopyridin-1(2H)-yl}-2-methyl-2-(methylsulfonyl)butanamide] | 8 µg/mL | 0.125 µg/mL |  | 
8 | CC(CCn1ccc(-c2cc(F)cc(Cl)c2)cc1=O)(C(=O)NO)S(C)(=O)=O (stereo not shown) [Example 121, 4-[4-(3-chloro-5-fluorophenyl)-2-oxopyridin-1(2H)-yl]-N-hydroxy-2-methyl-2-(methylsulfonyl)butanamide] | 16 µg/mL | 8 µg/mL |  | 
9 | CN(C)S(=O)(=O)c1ccc(-c2ccn(CCC(C)(C(=O)NO)S(C)(=O)=O)c(=O)c2)cc1 (stereo not shown) [Example 106, 4-[4-{4-[(dimethylamino)sulfonyl]phenyl}-2-oxopyridin-1(2H)-yl]-N-hydroxy-2-methyl-2-(methylsulfonyl)butanamide] | 64 µg/mL | > 64 µg/mL |  | 
10 | Cn1ccnc1-c1ccc(-c2ccn(CCC(C)(C(=O)NO)S(C)(=O)=O)c(=O)c2)cc1 (stereo not shown) [Example 104, N-hydroxy-2-methyl-4-{4-[4-(1-methyl-1H-imidazol-2-yl)phenyl]-2-oxopyridin-1(2H)-yl}-2-(methylsulfonyl)butanamide] | > 64 µg/mL | > 64 µg/mL |  | 
11 | C[C@@](CCn1ccc(-c2ccc(OC3CCNCC3)c(F)c2)cc1=O)(C(=O)NO)S(C)(=O)=O [Example 337, (2R)-4-{4-[3-fluoro-4-(piperidin-4-yloxy)phenyl]-2-oxopyridin-1(2H)-yl}-N-hydroxy-2-methyl-2-(methylsulfonyl)butanamide] |  |  | > 64 µg/mL | > 64 µg/mL
12 | Cc1cc(SCC#N)ccc1-c1ccn(CC[C@](C)(C(=O)NO)S(C)(=O)=O)c(=O)c1 [Example 356, (2R)-4-[4-{4-[(cyanomethyl)thio]-2-methylphenyl}-2-oxopyridin-1(2H)-yl]-N-hydroxy-2-methyl-2-(methylsulfonyl)butanamide] |  |  | 4 µg/mL | 16 µg/mL
13 | Cc1cnc(N2CC=C(c3ccn(CC[C@](C)(C(=O)NO)S(C)(=O)=O)c(=O)c3)CC2)nc1 [Example 420, (2R)-N-hydroxy-2-methyl-4-[1′-(5-methylpyrimidin-2-yl)-2-oxo-1′,2′,3′,6′-tetrahydro-4,4′-bipyridin-1(2H)-yl]-2-(methylsulfonyl)butanamide] |  |  | 8 µg/mL | 4 µg/mL
14 | C[C@@](CCn1ccc(-c2ccc(CCC#N)cc2)cc1=O)(C(=O)NO)S(C)(=O)=O [Example 347, (2R)-4-{4-[4-(2-cyanoethyl)phenyl]-2-oxopyridin-1(2H)-yl}-N-hydroxy-2-methyl-2-(methylsulfonyl)butanamide] |  |  | 4 µg/mL | 64 µg/mL
15 | CC(CCn1ccc(-c2ccc(C(F)(F)F)cc2C(F)(F)F)cc1=O)(C(=O)NO)S(C)(=O)=O (stereo not shown) [Example 174, 4-{4-[2,4-bis(trifluoromethyl)phenyl]-2-oxopyridin-1(2H)-yl}-N-hydroxy-2-methyl-2-(methylsulfonyl)butanamide] | > 64 µg/mL | 64 µg/mL |  | 
16 | Cc1c(-c2ccc(F)cc2)ccn(CC[C@](C)(C(=O)NO)S(C)(=O)=O)c1=O [Example 395, (2R)-4-[4-(4-fluorophenyl)-3-methyl-2-oxopyridin-1(2H)-yl]-N-hydroxy-2-methyl-2-(methylsulfonyl)butanamide] |  |  | 2 µg/mL | 1 µg/mL
17 | CC(CCn1ccc(-c2ccc(OCCc3ccccn3)cc2)cc1=O)(C(=O)NO)S(C)(=O)=O (stereo not shown) [Example 272, N-hydroxy-2-methyl-2-(methylsulfonyl)-4-{2-oxo-4-[4-(2-pyridin-2-ylethoxy)phenyl]pyridin-1(2H)-yl}butanamide] |  |  | 2 µg/mL | 0.5 µg/mL
18 | CC(CCn1ccc(-c2cnc3ccccc3c2)cc1=O)(C(=O)NO)S(C)(=O)=O (stereo not shown) [Example 124, N-hydroxy-2-methyl-2-(methylsulfonyl)-4-(2-oxo-4-quinolin-3-ylpyridin-1(2H)-yl)butanamide] | 16 µg/mL | 16 µg/mL |  | 
19 | C[C@@](CCn1ccc(-c2ccc(-n3cnnn3)cc2)cc1=O)(C(=O)NO)S(C)(=O)=O [Example 421, (2R)-N-hydroxy-2-methyl-2-(methylsulfonyl)-4-{2-oxo-4-[4-(1H-tetrazol-1-yl)phenyl]pyridin-1(2H)-yl}butanamide] |  |  | 64 µg/mL | > 64 µg/mL
20 | COc1ccc2cc(-c3ccn(CC[C@](C)(C(=O)NO)S(C)(=O)=O)c(=O)c3)ccc2n1 [Example 328, (2R)-N-hydroxy-4-[4-(2-methoxyquinolin-6-yl)-2-oxopyridin-1(2H)-yl]-2-methyl-2-(methylsulfonyl)butanamide] |  |  | 1 µg/mL | 1 µg/mL
21 | C[C@@](CCn1ccc(-c2cc(F)cc(Cl)c2Cl)cc1=O)(C(=O)NO)S(C)(=O)=O [Example 451, (2R)-4-[4-(2,3-dichloro-5-fluorophenyl)-2-oxopyridin-1(2H)-yl]-N-hydroxy-2-methyl-2-(methylsulfonyl)butanamide] |  |  | 4 µg/mL | 4 µg/mL
22 | CC(CCn1ccc(-c2ccc(-c3cccnc3)cc2F)cc1=O)(C(=O)NO)S(C)(=O)=O (stereo not shown) [Example 295, 4-[4-(2-fluoro-4-pyridin-3-ylphenyl)-2-oxopyridin-1(2H)-yl]-N-hydroxy-2-methyl-2-(methylsulfonyl)butanamide] |  |  | 8 µg/mL | 1 µg/mL
23 | C[C@@](CCn1ccc(-c2ccc(-c3cnco3)cc2)cc1=O)(C(=O)NO)S(C)(=O)=O [Example 340, (2R)-N-hydroxy-2-methyl-2-(methylsulfonyl)-4-{4-[4-(1,3-oxazol-5-yl)phenyl]-2-oxopyridin-1(2H)-yl}butanamide] |  |  | 1 µg/mL | 0.25 µg/mL
